Structures are written as SMILES.

We go through 59 molecules from patent US20230165252A1, “ACTIVE COMPOUND COMBINATIONS” (Bayer Aktiengesellschaft, priority 2020, published 2023).

A short description of the first series: Measurement of Log P values by HPLC on reversed phase columns (EEC directive 79/831 Annex V.A8), methods [a], [b], [c]. Particulars: HPLC method [a]. It counts as physicochemical.
Experimental: Measurement of Log P values as provided herein was performed according to EEC directive 79/831 Annex V.A8 by HPLC (High Performance Liquid Chromatography) on reversed phase columns with the following methods: • ^[a]
Consider `Cc1cc(Br)ccc1C(F)(F)CNC(=O)c1cc(Cl)nnc1Oc1cccc(C(F)(F)F)c1` [I-404], for which the LogP was 4.57^[a]. As for `O=C(NCc1cncc2ccccc12)c1cc(Cl)nnc1Oc1cccc(C(F)(F)F)c1` [I-379], the LogP is 2.14^[a].

Take `O=C(NCC(F)(F)c1ccc(C(F)(F)F)cc1Cl)c1cc(Cl)nnc1Oc1cccc(C(F)(F)F)c1` [I-418]: the LogP is 4.45^[a]. For `O=C(NCc1cnc2ccccc2c1)c1cc(Cl)nnc1Oc1cccc(C(F)(F)F)c1` [I-306], the LogP was 2.71^[a].

With `O=C(NCC(F)c1ccc(Br)cc1Cl)c1cc(Cl)nnc1Oc1cccc(C2CC2)c1` (racemic) [I-362], the LogP was 4.87^[a]. As to `Cc1nnc(Oc2cccc(C(F)F)c2F)c(C(=O)NCC(F)c2ccc(Br)cc2Cl)c1C` (racemic) [I-369], the LogP was 3.65^[a]. On to `Cc1ccc(C(F)(F)CNC(=O)c2cc(C)nnc2Oc2cccc(C(F)(F)F)c2)c(C)c1` [I-411], for which the LogP is 4.00^[a].

The series is the same for the next values; noted with them: HPLC on reversed phase column, method [a].
For `Cc1cc(C(=O)NCC(F)(F)c2ccc(C3CCC3)cc2Cl)c(Oc2cccc(C(F)(F)F)c2)nn1` [I-028], the LogP is 4.83^[a]. As to `CCOc1c(Cl)nnc(Oc2cccc(C(F)(F)F)c2)c1C(=O)NCC(F)(F)c1ccc(C)cc1C` [I-181], the LogP was 4.68^[a].

`O=C(NCC(F)(F)c1ccc(F)cc1F)c1cc(Cl)nnc1Oc1cccc(C(F)(F)F)c1` [I-067]: the LogP was 3.75^[a]. In the case of `O=C(NCC(F)(F)c1ccc(SCC(F)(F)F)cc1Cl)c1cc(Cl)nnc1Oc1cccc(C(F)(F)F)c1` [I-087], the LogP was 4.45^[a]. Same read-out and setting: as for `Cc1ccc(C(F)(F)CNC(=O)c2c(Oc3cccc(C(F)(F)F)c3)nnc(Cl)c2[S+](C)[O-])c(C)c1` (centres unmarked) [I-072], the figure is 3.75^[a]; as for `Cc1ccc(C(F)CNC(=O)c2c(Oc3cccc(C4CC4)c3F)nnc(C)c2C)c(C)c1` (racemic) [I-836], 3.78^[a].

The same series, now with this note: method [a].
For `O=C(NCC(F)(F)c1ccc(Cl)cc1Br)c1cc(Cl)nnc1Oc1cccc(C(F)(F)F)c1` [I-478], the LogP is 4.68^[a].

Take `O=C(NCC(F)c1ccc(Cl)cc1Cl)c1c(Oc2cccc(C3CC3)c2F)nnc(Cl)c1I` (racemic) [I-758]: the LogP was 4.73^[a].

With `O=C(NCCc1ncc(Cl)cn1)c1cc(Cl)nnc1Oc1cccc(C(F)(F)F)c1` [I-635], the LogP was 3.05^[a].

On to `CCc1cccc(Oc2nnc(Cl)cc2C(=O)NCC(F)(F)c2ccc(C)cc2C)c1` [I-570], for which the LogP was 4.68^[a]. For `CNc1c(Cl)nnc(Oc2cccc(C3CC3)c2F)c1C(=O)NCCc1ccc(Cl)cc1Cl` [I-757], the LogP is 4.09^[a]. For the molecule `O=C(NCC(F)(F)Oc1ccc(C(F)(F)F)cc1Cl)c1cc(Cl)nnc1Oc1cccc(C(F)(F)F)c1` [I-633], the LogP is 4.58^[a]. As for `O=C(NC1CCCc2ccsc21)c1cc(Cl)nnc1Cl` (racemic) [Compound 3-16], the LogP was 2.60^[a]. Consider `Cc1ccc(C(F)(F)CNC(=O)c2c(Oc3cccc(C(F)(F)F)c3)nnc(C3CC3)c2NC2CC2)c(C)c1` [I-650], for which the LogP is 4.10^[a]. On the same count and under the same terms, to `Cc1cc(C(=O)NCCc2cccc3oc(C)nc23)c(Oc2cccc(C(F)(F)F)c2)nn1` [I-543] belongs 2.96^[a]; to `CC(NC(=O)c1cc(Cl)nnc1Cl)c1cn(C)c2ccccc12` (racemic) [Compound 3-18], 2.71^[a]; to `O=C(NCC(F)c1ccc(Cl)cc1Cl)c1c(Oc2cccc(C3CC3)c2F)nnc(Cl)c1O` (racemic) [I-782], 5.13^[a].

For the molecule `Cc1ccc(C(F)(F)CNC(=O)c2cc(-c3cn[nH]c3)nnc2Oc2cccc(C(F)(F)F)c2)c(C)c1` [I-515], the LogP is 3.65^[a]. The same measure, in the same setting: to `Cc1ccc(C(F)CNC(=O)c2c(Cl)nnc(Cl)c2C)c(Cl)c1` (racemic) [Compound 3-23] belongs 3.22^[a]. For the molecule `C=C(C)OC(=O)N(CC(F)(F)c1ccc(C)cc1C)C(=O)c1cc(Cl)nnc1Oc1cccc(C(F)(F)F)c1` [I-785], the LogP is 5.51^[a]. `Cc1ccc(C(F)(F)CNC(=O)c2cc([S+](C)[O-])nnc2Oc2cccc(C(F)(F)F)c2)c(C)c1` (racemic) [I-781]: the LogP was 3.65^[a]. Turning to `Cc1ccc(C(F)(F)CNC(=O)c2cc(CCC#N)nnc2Oc2cccc(C(F)(F)F)c2)c(C)c1` [I-662], the LogP was 3.78^[a]. As to `Cc1ccc(C(F)(F)CNC(=O)c2c(Oc3cccc(C(F)(F)F)c3)nnc(Cl)c2OCC2CC2(F)F)c(C)c1` (racemic) [I-683], the LogP is 4.95^[a]. For the molecule `Cc1ccc(C(F)(F)CNC(=O)c2c(Oc3cccc(C(F)(F)F)c3)nnc(Cl)c2NC2CC2C2CC2)c(C)c1` (mixture of isomers) [I-812], the LogP is 4.87^[a]. Still for that read-out and setting: to `O=C(NCCc1ccc2c(c1)CCO2)c1cc(Cl)nnc1Oc1cccc(C(F)(F)F)c1` [I-551] belongs 3.65^[a].

Staying with this series, now noted: method [a]: LC-UV, acidic range, 0.1% formic acid in water and acetonitrile as eluent (10% to 95% acetonitrile); Table 3, compounds of formula (1).
On to `Cc1c(Cl)nnc(Oc2cccc(C3CC3(F)F)c2)c1C(=O)O` (racemic) [Compound 1-105], for which the LogP was 1.69^[a]. Still for that read-out and setting: as for `O=C(O)c1cc(N2CCCC2)nnc1Oc1cccc(C(F)(F)F)c1` [Compound 1-021], the figure is 1.08^[a]; as for `CC(C)OC(=O)c1cc(Cl)nnc1Oc1cncc(C(F)F)c1` [Compound 1-102], 2.82^[a]; as for `Cc1nnc(Oc2cccc(C3CC3)c2F)c(C(=O)O)c1C` [Compound 1-077], 1.31^[a].

As to `C#Cc1cccc(Oc2nnc(Cl)cc2C(=O)O)c1` [Compound 1-017], the LogP was 1.50^[a].

Consider `CC(C)OC(=O)c1cc(-c2ccncc2Cl)nnc1Oc1cccc(F)c1F` [Compound 1-074], for which the LogP was 3.65^[a].

On to `O=C(O)c1cc(I)nnc1Oc1cccc(C(F)(F)F)c1` [Compound 1-127], for which the LogP was 2.08^[a]. `O=C(O)c1cc(C2CC2)nnc1Oc1cccc(C(F)(F)F)c1` [Compound 1-043]: the LogP is 1.90^[a].

Staying with this series, now noted: method [a]: LC-UV, acidic range, 0.1% formic acid in water and acetonitrile as eluent; Table 9, compounds of formula (4).
Regarding `CC=Cc1cccc(O)c1F` [Compound 4-01], the LogP was 2.33^[a].

Staying with this series, now noted: method [b]: LC-UV, neutral range, 0.001 molar ammonium acetate solution in water and acetonitrile as eluent (10% to 95% acetonitrile); Table 3, compounds of formula (1).
As to `O=C(O)c1cc(Cl)nnc1Oc1cccc(C(F)(F)F)n1` [Compound 1-031], the LogP was 0.69^[b].

Still in this series, the particulars now being: reversed-phase HPLC column, HPLC method [a].
The chromatographic logP is lipophilicity estimated from chromatographic retention. Molecule `Cc1cc(C2CC2)ccc1C(F)(F)CNC(=O)c1cc(Cl)nnc1Oc1cccc(C(F)(F)F)c1` [Compound I-240, 6-chloro-N-[2-(4-cyclopropyl-2-methyl-phenyl)-2,2-difluoro-ethyl]-3-[3-(tri-fluoromethyl)phenoxy]pyridazine-4-carboxamide] had a chromatographic logP of 4.77.

Staying with this series, now noted: reversed-phase HPLC column, HPLC on reversed phase column, method [a].
Molecule `Cc1ccc(C(F)(F)CNC(=O)c2c(Oc3cccc(C4CC4)c3F)nnc(Cl)c2C)c(Br)c1` [Compound I-840, N-[2-(2-bromo-4-methylphenyl)-2,2-difluoroethyl]-6-chloro-3-(3-cyclopropyl-2-fluoro-phenoxy)-5-methylpyridazine-4-carboxamide] showed a chromatographic logP of 4.57. Turning to `Cc1ccc(CCNC(=S)c2cc(C)nnc2Oc2cccc(C(F)(F)F)c2)c(C)c1` [Compound I-094, N-[2-(2,4-dimethylphenyl)ethyl]-6-methyl-3-[3-(trifluoro-methyl)phenoxy]pyridazine-4-carbothioamide], the chromatographic logP was 4.69.

Still in this series, the particulars now being: reversed-phase HPLC column, method [a].
Consider `CC(=O)c1cc(C(=O)NCC(F)c2ccc(Br)cc2Cl)c(Oc2cccc(C(F)(F)F)c2)nn1` (racemic) [Compound I-605, 6-acetyl-N-[rac-2-(4-bromo-2-chloro-phenyl)-2-fluoro-ethyl]-3-[3-(trifluoromethyl)phenoxy]pyridazine-4-carboxamide], for which the chromatographic logP came out at 4.49. For the molecule `Cc1ccc(C(F)(F)CNC(=O)c2cc(I)nnc2Oc2cccc(C(F)(F)F)c2)c(C)c1` [Compound I-461, N-[2-(2,4-dimethylphenyl)-2,2-difluoro-ethyl]-6-iodo-3-[3-(trifluoromethyl)phenoxy]pyridazine-4-carboxamide], the chromatographic logP is 4.67.

`Cc1ccc(C(F)(F)CNC(=O)c2c(Oc3cccc(Cl)c3)nnc(Cl)c2C)c(C)c1` [Compound I-790, 6-chloro-3-(3-chlorophenoxy)-N-[2-(2,4-dimethylphenyl)-2,2-difluoro-ethyl]-5-methyl-pyridazine-4-carboxamide] registered a chromatographic logP of 4.27.

Still in this series, the particulars now being: reversed-phase HPLC column, method [a]: LC-UV, acidic range, 0.1% formic acid in water and acetonitrile as eluent (10% to 95% acetonitrile); Table 3, compounds of formula (1).
Turning to `COC(=O)c1c(Oc2cccc(C(F)(F)F)c2F)nnc(Cl)c1Cl` [Compound 1-064], the chromatographic logP was found to be 3.96. `COC(=O)c1c(Oc2cccc(C(F)(F)F)c2)nnc(Cl)c1Cl` [Compound 1-049] had a chromatographic logP of 3.86. The same measure, in the same setting: as for `CCOC(=O)c1c(Oc2cccc(C(F)(F)F)c2)nnc(Cl)c1OCC` [Compound 1-060], the figure is 4.23; as for `COC(=O)c1cc(Cl)nnc1Oc1cccc(C(F)(F)F)c1` [Compound 1-079], 3.27. Turning to `CCOC(=O)c1c(Oc2cccc(C3CC3)c2)nnc(Cl)c1Cl` [Compound 1-056], the chromatographic logP was found to be 4.41.

`COC(=O)c1c(Oc2cccc(C(F)(F)F)c2)nnc(Cl)c1C1CC1` [Compound 1-001]: the chromatographic logP worked out at 3.94.

`COC(=O)c1c(Oc2cccc(C(F)F)c2F)nnc(C)c1C` [Compound 1-006] gave a chromatographic logP of 2.64.

On to `CSc1cc(C(=O)O)c(Oc2cccc(C(F)(F)F)c2)nn1` [Compound 1-004, 6-methylsulfanyl-3-[3-(trifluoromethyl)phenoxy]pyridazine-4-carboxylic acid], for which the chromatographic logP was 2.25. Same read-out and setting: to `COC(=O)c1cc(Cl)nnc1Oc1cncc(Br)c1` [Compound 1-086] belongs 2.33. `COC(=O)c1c(Oc2cccc(C(F)F)c2F)nnc(Cl)c1Cl` [Compound 1-055] yielded a chromatographic logP of 3.51. Turning to `COC(=O)c1cc(Cl)nnc1Oc1cccc(C(F)F)c1` [Compound 1-124], the chromatographic logP was determined as 2.76.
